The EC50 is the concentration at which the effect is half-maximal.

A value given as a limit tells only on which side of the number the result lay.

The source of these data is US20120232062A1, “AZAINDAZOLES TO TREAT FLAVIVIRIDAE VIRUS INFECTION” (EIGER BIOPHARMACEUTICALS, INC., priority 2009, published 2012).

The subject of the first assay is HCV genotype 1b. Kind of assay: HCV 1b replicon luciferase assay. As to conditions: Hepatitis C virus, 48 h, read-out: EC50 in the 48 hour 1b replicon assay, 48 hour. Type of assay: cell-based. Put shortly:
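Luminescence (Steady-Glo) served as the replication read-out after 48 h compound exposure of 1b replicon-luciferase Huh7 cells seeded at 10k/well. Dosing used 5-fold serial dilutions, 10 concentrations, top 25 μM final, 0.1% DMSO, duplicates.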
In general terms: In antiviral work, replicon cells carry a viral genome segment that copies itself.
Consider `CCC(CC)Oc1ccc2c(C(=O)NC3CCNCC3)n[nH]c2n1` [EBP726], for which the EC50 is less than 3000 nM.

Turning to `CC1CC(NCc2nn(C)c3nc(N4CCCCCC4)ccc23)CCN1` (stereo not shown) [EBP909], the EC50 was less than 3000 nM. In the case of `Cn1nc(CCCN2CCCC2)c2ccc(N3CCCCCCC3)nc21` [EBP1171], the EC50 was less than 3000 nM.

The same assay, now with this note: Hepatitis C virus, Huh-7, 48 h, Table 1; Huh7 HCV 1b replicon, luciferase reporter, 48 hours; read-out: 1b EC50.
Consider `Cn1nc(NC(=O)c2cccnc2)c2ccc(N3CCCCCC3)nc21` [compound 838], for which the EC50 turned out to be 3800 nM. On the same count and under the same terms, with `Cn1nc(C(=O)NC2CCN(CC3CC3)CC2)c2ccc(NC3CCCCCCC3)nc21` [compound 1478] the figure was 560 nM; with `CC1CCCCC1Oc1ccc2c(C(=O)NC3CCNCC3)nn(C)c2n1` (stereo not shown) [compound 878], 2800 nM. Still for that read-out and setting: with `COC[C@@H]1CCCN1CCN1CCC(NC(=O)c2nn(C)c3nc(N4CCCCCC4)ccc23)CC1` [compound 1556] the figure was 2900 nM; with `Cn1nc(C(=O)NC2CCN(CCC3CCCCC3)CC2)c2ccc(N3CCCCCCC3)nc21` [compound 1299], 310 nM.

With `O=C(/C=C/c1cccnc1)Nc1nn(Cc2ccc(Cl)cc2)c2nc(N3CCCCCC3)ccc12` [compound 747], the EC50 was 9000 nM. Turning to `Cn1nc(NC(=O)C2CCNCC2)c2ccc(N3CCCCCC3)nc21` [compound 1035], the EC50 was 5700 nM. The same measure, in the same setting: with `COc1cncc(-c2ccccc2COc2ccc3c(C(=O)NC4CCNCC4)nn(C)c3n2)c1` [compound 1119] the figure was 1500 nM; with `Cn1nc(-c2nnc(C3CCN(CCN4CCCCC4)CC3)o2)c2ccc(N3CCCCCCC3)nc21` [compound 1373], 630 nM; with `CC(C)CNc1ccc2c(C(=O)NC3CCCNC3)nn(C)c2n1` (stereo not shown) [compound 684], 10000 nM. On the same count and under the same terms, with `Cn1nc(C(=O)NC2CCNCC2)c2ccc(OCc3ccccc3-c3ccccc3)nc21` [compound 969] the figure was 1300 nM. For `CC(C)CN1CCC(NC(=O)c2nn(C)c3nc(NC4CCCCCCC4)ccc23)CC1` [compound 1473], the EC50 is 890 nM. The same measure, in the same setting: the figure for `O=C(NC1CCCNC1)c1n[nH]c2nc(OC3CCCCC3)ccc12` (stereo not shown) [compound 728] is 8000 nM; for `CCC(CC)Oc1ccc2c(NC(=O)c3ccccc3)nn(C)c2n1` [compound 942] it is 8600 nM. Take `CCn1nc(C(=O)NC2CCNCC2)c2ccc(N3CCCCCC3)nc21` [compound 856]: the EC50 came to 3700 nM. On the same count and under the same terms, with `Cn1nc(NC(=O)c2ccncc2Cl)c2ccc(N3CCCCCC3)nc21` [compound 833] the figure was 2900 nM.

Turning to `CCN1CCC(NC(=O)c2nn(C)c3nc(N4CCCCCCC4)ccc23)CC1C` (stereo not shown) [compound 1234], the EC50 amounted to 1900 nM. For the compound `Cn1nc(C(=O)NC2CCNCC2)c2ccc(N3CCCN(Cc4ccccc4)CC3)nc21` [compound 1049], the EC50 was 6100 nM.

For the compound `CC(C)Cn1nc(C(=O)NC2CCNCC2)c2ccc(N3CCCCCC3)nc21` [compound 852], the EC50 turned out to be 2900 nM. Consider `Cn1nc(-c2c[nH]c(CC3CCNCC3)n2)c2ccc(N3CCCCCC3)nc21` [compound 1054], for which the EC50 amounted to 8600 nM.

In the case of `Cn1nc(C(=O)NC2CCN(CC3CCCCC3)CC2)c2ccc(NC3CCCCCC3)nc21` [compound 1073], the EC50 was 670 nM. On the same count and under the same terms, with `Cn1nc(C(=O)NC2CCN(S(C)(=O)=O)CC2)c2ccc(N3CCCCCC3)nc21` [compound 699] the figure was 3800 nM. As to `CC1CC(NC(=O)c2nn(Cc3ccc(Cl)cc3)c3nc(N4CCCCCC4)ccc23)CCN1` (stereo not shown) [compound 708], the EC50 was 2400 nM. On the same count and under the same terms, with `CN(c1ccc2c(C(=O)NC3CCNCC3)nn(C)c2n1)C1CCCCCC1` [compound 891] the figure was 1100 nM; with `Cn1nc(-c2cnc(C3CCCN(Cc4ccc(OC(F)F)cc4)C3)s2)c2ccc(N3CCCCCCC3)nc21` (stereo not shown) [compound 1257], 2400 nM; with `CCC(CC)Oc1ccc2c(NC(=O)c3ccncc3)nn(C)c2n1` [compound 939], 4700 nM.

Consider `Cn1nc(C(=O)NC2CCN(CC(F)F)CC2)c2ccc(N3CCCCCCC3)nc21` [compound 1223], for which the EC50 came to 2800 nM.

`Cn1nc(C(=O)NC2CCN(CC3CCOCC3)CC2)c2ccc(NC3CCCCCCC3)nc21` [compound 1476]: the EC50 was 570 nM.

Turning to `Cn1nc(C(=O)NC2CCN(CCCN3CCCCC3)CC2)c2ccc(N3CCCCCC3)nc21` [compound 1041], the EC50 was found to be 1100 nM. Consider `CC1CCC(Oc2ccc3c(C(=O)NC4CCNCC4)nn(C)c3n2)C(C(C)C)C1` (stereo not shown) [compound 874], for which the EC50 is 1700 nM. Still for that read-out and setting: the figure for `CC(C1CC1)N1CCC(NC(=O)c2nn(C)c3nc(N4CCCCCCC4)ccc23)CC1` (stereo not shown) [compound 1311] is 970 nM; for `CC(c1cccc(C(F)(F)F)c1)N1CCC(NC(=O)c2nn(C)c3nc(N4CCCCCCC4)ccc23)CC1` (stereo not shown) [compound 1312] it is 2700 nM; for `CC1CCC(C)N1CCCc1nn(C)c2nc(N3CCCCCCC3)ccc12` (stereo not shown) [compound 1462] it is 1200 nM. With `CN(c1ccc2c(C(=O)NC3CCNCC3)nn(C)c2n1)C1CCCCC1` [compound 892], the EC50 amounted to 1500 nM. Consider `CCC(CC)Oc1ccc2c(NC(=O)C3CCCNC3)nn(C)c2n1` (stereo not shown) [compound 938], for which the EC50 amounted to 8200 nM. Turning to `CC1CCC(Oc2ccc3c(C(=O)NC4CCNCC4)nn(C)c3n2)C1` (stereo not shown) [compound 946], the EC50 came to 3700 nM. The same measure, in the same setting: the figure for `O=C(NC1CCNCC1)c1nn(Cc2ccc(Cl)cc2)c2nc(N3CCCCCC3)ccc12` [compound 704] is 2500 nM; for `Cn1nc(CCCN2CCC[C@@H]2CO)c2ccc(N3CCCCCCC3)nc21` [compound 1464] it is 2000 nM; for `Clc1ccc(Cn2nc(COCCN3CCCCC3)c3ccc(N4CCCCCCC4)nc32)cc1` [compound 1204] it is 5400 nM. On the same count and under the same terms, the figure for `O=C(NC1CCNC1)c1nnc2n(Cc3ccc(Cl)cc3)c(N3CCCCCC3)ccc1-2` (stereo not shown) [compound 712] is 8200 nM; for `Cn1nc(C(=O)NC2CCNCC2)c2ccc(OCc3ccc(-c4ccccc4)cc3)nc21` [compound 974] it is 4500 nM; for `Cn1nc(-c2cnc(C(=O)NCC3CCCN(CC(F)F)C3)s2)c2ccc(N3CCCCCCC3)nc21` (stereo not shown) [compound 1261] it is 1800 nM. The same measure, in the same setting: the figure for `Cn1nc(C(=O)NC2CCNCC2)c2ccc(NCc3ccccc3)nc21` [compound 1042] is 3800 nM; for `Cn1nc(-c2nnc(C3CCN(CC(F)F)C3)o2)c2ccc(N3CCCCCCC3)nc21` (stereo not shown) [compound 1366] it is 4000 nM. In the case of `Cn1nc(C(=O)NC2CCNCC2)c2ccc(N3CCCC(c4ccccc4)CC3)nc21` (stereo not shown) [compound 1026], the EC50 stood at 1600 nM. On the same count and under the same terms, the figure for `CC1CC(NCc2nn(C)c3nc(N4CCCCCC4)ccc23)CCN1` (stereo not shown) [compound 909] is 4000 nM. Still for that read-out and setting: with `CC(c1ccncc1)N1CCC(NC(=O)c2nn(C)c3nc(N4CCCCCCC4)ccc23)CC1` (stereo not shown) [compound 1304] the figure was 1400 nM; with `Cn1nc(-c2cnc(C3CCCN(CC4CCCCC4)C3)s2)c2ccc(N3CCCCCCC3)nc21` (stereo not shown) [compound 1255], 3000 nM.

In the case of `O=C(NC1CCCNC1)c1nnc2n(Cc3ccc(Cl)cc3)c(N3CCCCCC3)ccc1-2` (stereo not shown) [compound 710], the EC50 came out at 7900 nM. For `Cn1nc(C(=O)NC2CCNCC2)c2ccc(N3CCCCCCC3)nc21` [compound 886], the EC50 was determined as 798 nM. On to `CC(C)CNc1ccc2c(C(=O)NC3CCNCC3)nn(C)c2n1` [compound 688], for which the EC50 came out at 4900 nM. On the same count and under the same terms, the figure for `Cn1nc(C(=O)NC2CCNCC2)c2ccc(Oc3ccccc3)nc21` [compound 955] is 3400 nM. Still for that read-out and setting: with `Cc1ccc(CN2CCC(NC(=O)c3nn(C)c4nc(N5CCCCCCC5)ccc34)CC2)cc1` [compound 1224] the figure was 2700 nM; with `Cn1nc(C(=O)NC2CCNCC2)c2ccc(NC3CCCCCC3)nc21` [compound 866], 1100 nM. On the same count and under the same terms, with `O=C(NC1CCNCC1)c1nn(Cc2cccc(Cl)c2)c2nc(N3CCCCCC3)ccc12` [compound 854] the figure was 7200 nM; with `Cn1nc(-c2nnc(C3CCCCN3CC3CCCCC3)o2)c2ccc(N3CCCCCCC3)nc21` (stereo not shown) [compound 1324], 660 nM; with `Cn1nc(-c2cnc(C3CCCNC3)s2)c2ccc(N3CCCCCCC3)nc21` (stereo not shown) [compound 1248], 4100 nM.

As to `O=C(NC1CCNCC1)c1nnc2n(Cc3ccc(Cl)cc3)c(N3CCCCCC3)ccc1-2` [compound 709], the EC50 stood at 8700 nM.

Take `CCC(CC)Oc1ccc2c(C(=O)NC3CCCNC3)nn(C)c2n1` (stereo not shown) [compound 815]: the EC50 was found to be 6600 nM. With `Cn1nc(-c2nnc([C@@H]3CCCN3CCN3CCCCC3)o2)c2ccc(N3CCCCCCC3)nc21` [compound 1364], the EC50 was 2200 nM. Still for that read-out and setting: the figure for `Cn1nc(C(=O)NC2CCNCC2)c2cc(NC3CCCCC3)cnc21` [compound 991] is 9000 nM; for `CC1CC(NC(=O)c2nnc3n(Cc4ccc(Cl)cc4)c(N4CCCCCC4)ccc2-3)CCN1` (stereo not shown) [compound 713] it is 6100 nM; for `Cn1nc(CN[C@H]2CCNC2)c2ccc(N3CCCCCC3)nc21` [compound 908] it is 8700 nM. The same measure, in the same setting: with `Cn1nc(C(=O)NC2CCNCC2)c2ccc(N3CCCCC3)nc21` [compound 861] the figure was 7300 nM; with `O=C(NC1CC2CCCC(C1)N2)c1nn(Cc2ccc(Cl)cc2)c2nc(N3CCCCCC3)ccc12` (stereo not shown) [compound 751], 2000 nM; with `Cn1cc(-c2nn(C)c3nc(N4CCCCCC4)ccc23)nc1CC1CCNCC1` [compound 1126], 7700 nM.

Turning to `O=C(NC1CCNCC1)c1nn(CCc2ccc(Cl)cc2)c2nc(N3CCCCCC3)ccc12` [compound 855], the EC50 was 3700 nM.

In the case of `CCC(CC)Oc1ccc2c(COCCN3CCCCC3)nn(Cc3ccc(Cl)cc3)c2n1` [compound 792], the EC50 worked out at 4600 nM.

The assay is the same for the next values; noted with them: Table 1; Huh7 HCV 1b replicon, luciferase reporter, 48 hours; read-out: 1b EC50.
As for `Cn1nc(C(=O)NC2CCN(CC3CC3)CC2)c2ccc(N3CCCCCCC3)nc21` [compound 1300], the EC50 was 2700 nM. Still for that read-out and setting: with `Cc1ccc(CN2CCC(NC(=O)c3nn(C)c4nc(N5CCCCCC5)ccc34)CC2)cc1` [compound 1039] the figure was 2600 nM.
